# System: TTR
# Experiment: TTR editing in primary cyno hepatocytes electroporated with Spy Cas9 protein and dgRNAs (Tables 10, 11)
# Assay type: cell-based, cynomolgus monkey
# Conditions: Table 10; primary cyno hepatocytes electroporated with Spy Cas9 protein (RNP) and dgRNAs
# Protocol: Primary liver hepatocytes. Primary human liver hepatocytes (PHH) and primary cynomolgus liver hepatocytes (PCH) (Gibco) were cultured per the manufacturer's protocol (Invitrogen, protocol 11.28.2012). In brief, the cells were thawed and resuspended in hepatocyte thawing medium with supplements (Gibco, Cat. CM7000) followed by centrifugation at 100 g for 10 minutes for human and 80 g for 4 minutes for cyno. The supernatant was discarded and the pelleted cells resuspended in hepatocyte plating medium plus supplement pack (Invitrogen, Cat. A1217601 and CM3000). Cells were counted and plated on Bio-coat collagen I coated 96-well plates (ThermoFisher, Cat. 877272) at a density of 33,000 cells/well for human or 60,000 cells/well for cyno (or 65,000 cells/well when assaying effects on TTR protein, described further below). Plated cells were allowed to settle and adhere for 6 or 24 hours in a tissue culture incubator at 37° C. and 5% CO2 atmosphere. After incubation cells were checked for monolayer formation and media was replaced with hepatocyte culture medium with serum-free supplement pack (Invitrogen, Cat. A1217601 and CM4000).
# […] formation was performed prior to electroporation or transfection of Spy Cas9 protein loaded with guide RNAs (RNPs) onto cells. For dual guide (dgRNAs), individual crRNA and trRNA was pre-annealed by mixing equivalent amounts of reagent and incubating at 95° C. for 2 min and cooling to room temperature. Single guide (sgRNAs) were boiled at 95° C. for 2 min and cooling to room temperature. The boiled dgRNA or sgRNA was incubated with Spy Cas9 protein in Optimem for 10 minutes at room temperature to form a ribonucleoprotein (RNP) complex.
# For RNP electroporation into primary human and cyno hepatocytes, the cells are thawed and resuspended in Lonza electroporation Primary Cell P3 buffer at a concentration of 2500 cells per μL for human hepatocytes and 3500 cells per μL for cyno hepatocytes. A volume of 20 μL of resuspended cells and 5 μL of RNP are mixed together per guide. 20 μL of the mixture is placed into a Lonza electroporation plate. The cells were electroporated using the Lonza nucleofector with the preset protocol EX-147. Post electroporation, the cells are transferred into a Biocoat plate containing pre-warmed maintenance media and placed in a tissue culture incubator at 37° C. and 5% CO2.
# Transfected cells were harvested post-transfection at 24, 48, or 72 hours. The genomic DNA was extracted from each well of a 96-well plate using 50 μL/well BuccalAmp DNA Extraction solution (Epicentre, Cat. QE09050) per manufacturer's protocol. All DNA samples were subjected to PCR and subsequent NGS analyses, as described herein.
# To quantitatively determine the efficiency of editing at the target location in the genome, sequencing was utilized to identify the presence of insertions and deletions introduced by gene editing.
# Primers were designed around the target site within the gene of interest (e.g. TTR), and the genomic area of interest was amplified.
# Additional PCR was performed per the manufacturer's protocols (Illumina) to add chemistry for sequencing. The amplicons were sequenced on an Illumina MiSeq instrument. The reads were aligned to a reference genome (e.g., the human reference genome (hg38), the cynomologus reference genome (mf5), the rat reference genome (rn6), or the mouse reference genome (mm10)) after eliminating those having low quality scores. The resulting files containing the reads were mapped to the reference genome (BAM files), where reads that overlapped the target region of interest were selected and the number of wild type reads versus the number of reads which contain an insertion, substitution, or deletion was calculated.
# The editing percentage (e.g., the “editing efficiency” or “percent editing” or “indel frequency”) is defined as the total number of sequence reads with insertions/deletions (“indels”) or substitutions over the total number of sequence reads, including wild type. […]
Sequence,Avg % Deletion,Avg % Edit,Avg % Insert
"UGUAGAAGGGAUAUACAAAG (tested as dual guide RNA, chemistry not given here) [CR003365]",0.97%,10.31%,9.33%
"AAAGUUCUAGAUGCUGUCCG (tested as dual guide RNA, chemistry not given here) [CR003346]",0.09%,1.91%,1.82%
"AAAUAGACACCAAAUCUUAC (tested as dual guide RNA, chemistry not given here) [CR003366]",0.90%,18.52%,17.62%
"GAAAGGCUGCUGAUGACACC (tested as dual guide RNA, chemistry not given here) [CR003352]",0.09%,1.25%,1.16%
"AAAGGCUGCUGAUGACACCU (tested as dual guide RNA, chemistry not given here) [CR003353]",0.08%,4.75%,4.67%
"CUGGUAUUUGUGUCUGAGGC (tested as dual guide RNA, chemistry not given here) [CR003341]",0.77%,8.43%,7.66%
"GCAUGGGCUCACAACUGAGG (tested as dual guide RNA, chemistry not given here) [CR003362]",0.22%,4.59%,4.36%
"AUGCAGCUCUCCAGACUCAC (tested as dual guide RNA, chemistry not given here) [CR003358]",1.46%,20.47%,19.01%
"CUCUGCAUGCUCAUGGAAUG (tested as dual guide RNA, chemistry not given here) [CR003369]",0.25%,1.53%,1.28%
"GCUGCAUGGGCUCACAACUG (tested as dual guide RNA, chemistry not given here) [CR003361]",0.08%,4.53%,4.46%
"GGAGUAGGGGCUCAGCAGGG (tested as dual guide RNA, chemistry not given here) [CR003382]",2.33%,10.86%,8.54%
"ACACAAAUACCAGUCCAGCA (tested as dual guide RNA, chemistry not given here) [CR003339]",4.02%,8.95%,4.93%
"ACUGAGGAGGAAUUUGUAGA (tested as dual guide RNA, chemistry not given here) [CR003363]",2.39%,15.64%,13.24%
"UGAAUCCAAGUGUCCUCUGA (tested as dual guide RNA, chemistry not given here) [CR005303]",0.56%,59.28%,58.72%
"CUGAGGAGGAAUUUGUAGAA (tested as dual guide RNA, chemistry not given here) [CR003364]",5.35%,19.62%,14.27%
"UCUAGAACUUUGACCAUCAG (tested as dual guide RNA, chemistry not given here) [CR003345]",22.19%,52.92%,30.74%
"CCAGUCCAGCAAGGCAGAGG (tested as dual guide RNA, chemistry not given here) [CR003337]",0.84%,24.94%,24.10%
"UACUCACCUCUGCAUGCUCA (tested as dual guide RNA, chemistry not given here) [CR003372]",0.32%,2.15%,1.83%

Sequence,Avg % Deletion,Avg % Edit,Avg % Insert
"GACGACAGCCGUGGUGGAAU (tested as dual guide RNA, chemistry not given here) [CR003388]",0.22%,6.81%,6.59%
"CAUUGAUGGCAGGACUGCCU (tested as dual guide RNA, chemistry not given here) [CR003347]",0.25%,72.41%,72.15%
"CCUCUGCAUGCUCAUGGAAU (tested as dual guide RNA, chemistry not given here) [CR003370]",0.12%,2.52%,2.40%
"CCCCUACUCCUAUUCCACCA (tested as dual guide RNA, chemistry not given here) [CR003385]",4.12%,30.96%,26.84%
"AAUAGGAGUAGGGGCUCAGC (tested as dual guide RNA, chemistry not given here) [CR003384]",1.25%,3.75%,2.50%
"ACCUCUGCAUGCUCAUGGAA (tested as dual guide RNA, chemistry not given here) [CR003371]",0.14%,1.83%,1.69%
"AUAGGAGUAGGGGCUCAGCA (tested as dual guide RNA, chemistry not given here) [CR003383]",4.55%,8.86%,4.31%
"GGCUGUCGUCACCAAUCCCA (tested as dual guide RNA, chemistry not given here) [CR003391]",0.71%,36.44%,35.73%
"UGGACUGGUAUUUGUGUCUG (tested as dual guide RNA, chemistry not given here) [CR003340]",4.80%,12.53%,7.72%
"GGGAUUGGUGACGACAGCCG (tested as dual guide RNA, chemistry not given here) [CR003390]",0.39%,16.87%,16.49%
"CCGUGGUGGAAUAGGAGUAG (tested as dual guide RNA, chemistry not given here) [CR003386]",2.03%,5.54%,3.51%
"GCCGUGGUGGAAUAGGAGUA (tested as dual guide RNA, chemistry not given here) [CR003387]",0.17%,4.72%,4.55%
"AUUGGUGACGACAGCCGUGG (tested as dual guide RNA, chemistry not given here) [CR003389]",0.78%,18.83%,18.05%
"AUACCAGUCCAGCAAGGCAG (tested as dual guide RNA, chemistry not given here) [CR003338]",0.05%,44.94%,44.89%
"AGUCCCUCAUUCCUUGGGAU (tested as dual guide RNA, chemistry not given here) [CR003392]",0.38%,7.02%,6.63%
"ACGUGUCUUCUCUACACCCA (tested as dual guide RNA, chemistry not given here) [CR005302]",0.08%,1.34%,1.26%
"CCUCCUCUGCCUUGCUGGAC (tested as dual guide RNA, chemistry not given here) [CR003336]",0.07%,8.18%,8.10%

# From US11795460B2, “Compositions and methods for TTR gene editing and treating ATTR amyloidosis” (Intellia Therapeutics, Inc., priority 2017, dated 2023)
